Measured values: patent publication US10787443B2, “RAF-degrading conjugate compounds” (ZAMBONI CHEM SOLUTIONS INC., priority 2017, dated 2020)

System: GST-Braf kinase domain and biotinylated E3 substrate adapter (VHL/EloB/EloC complex or CRBN318-425)
Assay: Dimerization assay (AlphaScreen/AlphaLisa), RAF/E3 dimerization
Assay type: binding
Conditions: relative value, compounds 4 fold serial dilutions from 20 μM

## O=C1CCC(N2Cc3c(CCCCCCNC(=O)c4cc(Oc5ccc(NC(=O)Nc6ccc(Cl)c(C(F)(F)F)c6)cc5)ccn4)cccc3C2=O)C(=O)N1 (centres unmarked) [Compound 2.031, 4-(4-(3-(4-chloro-3-(trifluoromethyl)phenyl)ureido)phenoxy)-N-(6-(2-(2,6-dioxopiperidin-3-yl)-1-oxoisoindolin-4-yl)hexyl)picolinamide]
Table 17
  RAF/E3 Dimerization: + (5% > RAF/E3 Dimerization)

## Cc1ncc(NC(=O)c2cccc(C(F)(F)F)c2)cc1-c1cnc(OCCOCCOCCOCc2cn(CCCCC(=O)N[C@@H](C(=O)N3C[C@H](O)C[C@H]3C(=O)N[C@@H](C)c3ccc(-c4scnc4C)cc3)C(C)(C)C)nn2)c(N2CCOCC2)c1 [Compound 2.009, (2S,4R)-1-((R)-3,3-dimethyl-2-(5-(4-((2-(2-(2-((2′-methyl-5-morpholino-5′-(3-(trifluoromethyl)benzamido)-[3,3′-bipyridin]-6-yl)oxy)ethoxy)ethoxy)ethoxy)methyl)-1H-1,2,3-triazol-1-yl)pentanamido)butanoyl)-4-hydroxy-N—((S)-1-(4-(4-methylthiazol-5-yl)phenyl)ethyl)pyrrolidine-2-carboxamide]
Table 17
  RAF/E3 Dimerization: +++ (50% > RAF/E3 Dimerization ≥ 25)

## Cc1ncc(NC(=O)c2cccc(C(F)(F)F)c2)cc1-c1cnc(OCCc2cn(CCCCCC(=O)Nc3cccc4c3C(=O)N(C3CCC(=O)NC3=O)C4=O)nn2)c(N2CCOCC2)c1 (centres unmarked) [Compound 1.002, N-(6′-(2-(1-(6-((2-(2,6-dioxopiperidin-3-yl)-1,3-dioxoisoindolin-4-yl)amino)-6-oxohexyl)-1H-1,2,3-triazol-4-yl)ethoxy)-2-methyl-5′-morpholino-[3,3′-bipyridin]-5-yl)-3-(trifluoromethyl)benzamide]
Table 15
  RAF/E3 Dimerization: + (5% > RAF/E3 Dimerization)

## Cc1ncc(NC(=O)c2cccc(C(F)(F)F)c2)cc1-c1cnc(OC2CCOCC2)c(N2CCN(CCCCc3cn(CCCCCC(=O)Nc4cccc5c4C(=O)N(C4CCC(=O)NC4=O)C5=O)nn3)CC2)c1 (centres unmarked) [Compound 2.048, N-(5′-(4-(4-(1-(6-((2-(2,6-dioxopiperidin-3-yl)-1,3-dioxoisoindolin-4-yl)amino)-6-oxohexyl)-1H-1,2,3-triazol-4-yl)butyl)piperazin-1-yl)-2-methyl-6′-((tetrahydro-2H-pyran-4-yl)oxy)-[3,3′-bipyridin]-5-yl)-3-(trifluoromethyl)benzamide]
Table 17
  RAF/E3 Dimerization: ++ (25% > RAF/E3 Dimerization ≥ 5%)

## Cc1ncc(NC(=O)c2cccc(C(F)(F)F)c2)cc1-c1cnc(OC2CCOCC2)c(N2CCN(C(=O)CCCc3cn(CCCCCC(=O)Nc4cccc5c4C(=O)N(C4CCC(=O)NC4=O)C5=O)nn3)CC2)c1 (centres unmarked) [Compound 2.049, N-(5′-(4-(4-(1-(6-((2-(2,6-dioxopiperidin-3-yl)-1,3-dioxoisoindolin-4-yl)amino)-6-oxohexyl)-1H-1,2,3-triazol-4-yl)butanoyl)piperazin-1-yl)-2-methyl-6′-((tetrahydro-2H-pyran-4-yl)oxy)-[3,3′-bipyridin]-5-yl)-3-(trifluoromethyl)benzamide]
Table 17
  RAF/E3 Dimerization: + (5% > RAF/E3 Dimerization)

## CCCCCCNC(=O)Nc1cc(-c2cc3cnc(NCCCCc4cn(CCCCC(=O)N[C@@H](C(=O)N5C[C@H](O)C[C@H]5C(=O)N[C@@H](C)c5ccc(-c6scnc6C)cc5)C(C)(C)C)nn4)nc3nc2C)c(C)cc1F [Compound 2.038, (2S,4R)-1-((R)-2-(5-(4-(4-((6-(4-fluoro-5-(3-hexylureido)-2-methylphenyl)-7-methylpyrido[2,3-d]pyrimidin-2-yl)amino)butyl)-1H-1,2,3-triazol-1-yl)pentanamido)-3,3-dimethylbutanoyl)-4-hydroxy-N—((S)-1-(4-(4-methylthiazol-5-yl)phenyl)ethyl)pyrrolidine-2-carboxamide]
Table 17
  RAF/E3 Dimerization: +++ (50% > RAF/E3 Dimerization ≥ 25)

## Cc1ccc(NC(=O)c2cccc(C(F)(F)F)c2)cc1-c1cnc(OCCOCCOCCOCc2cn(CCCCCC(=O)N[C@@H](C(=O)N3C[C@H](O)C[C@H]3C(=O)N[C@@H](C)c3ccc(-c4scnc4C)cc3)C(C)(C)C)nn2)c(N2CCOCC2)c1 [Compound 2.011, (2S,4R)-1-((R)-3,3-dimethyl-2-(6-(4-((2-(2-(2-((5-(2-methyl-5-(3-(trifluoromethyl)benza-mido)phenyl)-3-morpholinopyridin-2-yl)oxy)ethoxy)ethoxy)ethoxy)methyl)-1H-1,2,3-triazol-1-yl)hexanamido)butanoyl)-4-hydroxy-N—((S)-1-(4-(4-methylthiazol-5-yl)phenyl)-ethyl)pyrrolidine-2-carboxamide]
Table 17
  RAF/E3 Dimerization: +++++ (RAF/E3 Dimerization ≥75%)

## CNc1ncc2cc(-c3cc(NC(=O)NCCOCCOCCOCC(=O)N[C@@H](C(=O)N4C[C@H](O)C[C@H]4C(=O)N[C@@H](C)c4ccc(-c5scnc5C)cc4)C(C)(C)C)c(F)cc3C)c(C)nc2n1 [Compound 2.041, (2S,4R)-1-((R)-15-(tert-butyl)-1-((2-fluoro-4-methyl-5-(7-methyl-2-(methylamino)pyrido[2,3-d]pyrimidin-6-yl)phenyl)amino)-1,13-dioxo-5,8,11-trioxa-2,14-diazahexadecan-16-oyl)-4-hydroxy-N—((S)-1-(4-(4-methylthiazol-5-yl)phenyl)ethyl)pyrrolidine-2-carboxamide]
Table 17
  RAF/E3 Dimerization: + (5% > RAF/E3 Dimerization)

## Cc1ncc(NC(=O)c2cccc(C(F)(F)F)c2)cc1-c1cnc(OCCCCc2cn(CCCCCC(=O)Nc3cccc4c3C(=O)N(C3CCC(=O)NC3=O)C4=O)nn2)c(N2CCOCC2)c1 (centres unmarked) [Compound 1.004, N-(6′-(4-(1-(6-((2-(2,6-dioxopiperidin-3-yl)-1,3-dioxoisoindolin-4-yl)amino)-6-oxohexyl)-1H-1,2,3-triazol-4-yl)butoxy)-2-methyl-5′-morpholino-[3,3′-bipyridin]-5-yl)-3-(trifluoromethyl)benzamide]
Table 15
  RAF/E3 Dimerization: + (5% > RAF/E3 Dimerization)

## O=C1CCC(N2C(=O)c3cccc(NC(=O)CCCCCn4cc(CCNC(=O)c5cc(Oc6ccc(NC(=O)Nc7ccc(Cl)c(C(F)(F)F)c7)cc6)ccn5)nn4)c3C2=O)C(=O)N1 (centres unmarked) [Compound 2.025, 4-(4-(3-(4-chloro-3-(trifluoromethyl)phenyl)ureido)phenoxy)-N-(2-(1-(6-((2-(2,6-dioxopiperidin-3-yl)-1,3-dioxoisoindolin-4-yl)amino)-6-oxohexyl)-1H-1,2,3-triazol-4-yl)ethyl)picolinamide]
Table 17
  RAF/E3 Dimerization: ++ (25% > RAF/E3 Dimerization ≥ 5%)

## Cc1ncsc1-c1ccc([C@H](C)NC(=O)[C@@H]2C[C@@H](O)CN2C(=O)[C@H](NC(=O)CCOCCOCCOCCOCCNC(=O)c2cc(Oc3ccc(NC(=O)Nc4ccc(Cl)c(C(F)(F)F)c4)cc3)ccn2)C(C)(C)C)cc1 [Compound 1.015, 4-(4-(3-(4-chloro-3-(trifluoromethyl)phenyl)ureido)phenoxy)-N-(17-((2S,4R)-4-hydroxy-2-(((S)-1-(4-(4-methylthiazol-5-yl)phenyl)ethyl)carbamoyl)pyrrolidine-1-carbonyl)-18,18-dimethyl-15-oxo-3,6,9,12-tetraoxa-16-azanonadecyl)picolinamide]
Table 17
  RAF/E3 Dimerization: + (5% > RAF/E3 Dimerization)

## O=C1CCC(N2Cc3c(CCCCCCOCCOCCNC(=O)c4cc(Oc5ccc(NC(=O)Nc6ccc(Cl)c(C(F)(F)F)c6)cc5)ccn4)cccc3C2=O)C(=O)N1 (centres unmarked) [Compound 2.034, 4-(4-(3-(4-chloro-3-(trifluoromethyl)phenyl)ureido)phenoxy)-N-(2-(2-((6-(2-(2,6-dioxopiperidin-3-yl)-1-oxoisoindolin-4-yl)hexyl)oxy)ethoxy)ethyl)picolinamide]
Table 17
  RAF/E3 Dimerization: ++ (25% > RAF/E3 Dimerization ≥ 5%)

## O=C1CCC(N2C(=O)c3cccc(CCCOCCNC(=O)c4cc(Oc5ccc(NC(=O)Nc6ccc(Cl)c(C(F)(F)F)c6)cc5)ccn4)c3C2=O)C(=O)N1 (centres unmarked) [Compound 2.029, 4-(4-(3-(4-chloro-3-(trifluoromethyl)phenyl)ureido)phenoxy)-N-(2-(3-(2-(2,6-dioxopiperidin-3-yl)-1,3-dioxoisoindolin-4-yl)propoxy)ethyl)picolinamide]
Table 17
  RAF/E3 Dimerization: + (5% > RAF/E3 Dimerization)

## CNc1ncc2cc(-c3cc(NC(=O)NCCCCCCOCCOCCOCCOCC(=O)N[C@@H](C(=O)N4C[C@H](O)C[C@H]4C(=O)N[C@@H](C)c4ccc(-c5scnc5C)cc4)C(C)(C)C)c(F)cc3C)c(C)nc2n1 [Compound 2.043, (2S,4R)-1-((R)-22-(tert-butyl)-1-((2-fluoro-4-methyl-5-(7-methyl-2-(methylamino)pyrido[2,3-d]pyrimidin-6-yl)phenyl)amino)-1,20-dioxo-9,12,15,18-tetraoxa-2,21-diazatricosan-23-oyl)-4-hydroxy-N—((S)-1-(4-(4-methylthiazol-5-yl)phenyl)ethyl)pyrrolidine-2-carboxamide]
Table 17
  RAF/E3 Dimerization: ++ (25% > RAF/E3 Dimerization ≥ 5%)

## Cc1ncc(NC(=O)c2cccc(C(F)(F)F)c2)cc1-c1cnc(OCCOCCOCC(=O)NCCOCCCc2cccc3c2C(=O)N(C2CCC(=O)NC2=O)C3=O)c(N2CCOCC2)c1 (centres unmarked) [Compound 2.023, N-(6′-((15-(2-(2,6-dioxopiperidin-3-yl)-1,3-dioxoisoindolin-4-yl)-8-oxo-3,6,12-trioxa-9-azapentadecyl)oxy)-2-methyl-5′-morpholino-[3,3′-bipyridin]-5-yl)-3-(trifluoromethyl)ben-zamide]
Table 17
  RAF/E3 Dimerization: + (5% > RAF/E3 Dimerization)

## Cc1ncc(NC(=O)c2cccc(C(F)(F)F)c2)cc1-c1cnc(OCCOCCOCC(=O)NCCOCCCc2cccc3c2CN(C2CCC(=O)NC2=O)C3=O)c(N2CCOCC2)c1 (centres unmarked) [Compound 2.019, N-(6′-((15-(2-(2,6-dioxopiperidin-3-yl)-1-oxoisoindolin-4-yl)-8-oxo-3,6,12-trioxa-9-azapentadecyl)oxy)-2-methyl-5′-morpholino-[3,3′-bipyridin]-5-yl)-3-(trifluoromethyl)benzamide]
Table 17
  RAF/E3 Dimerization: +++ (50% > RAF/E3 Dimerization ≥ 25)

## Cc1ncsc1-c1ccc([C@H](C)NC(=O)C2C[C@@H](O)CN2C(=O)C(NC(=O)CCOCCOCCNC(=O)c2cc(Oc3ccc(NC(=O)Nc4ccc(Cl)c(C(F)(F)F)c4)cc3)ccn2)C(C)(C)C)cc1 (stereo in doubt) [Compound 1.014, 4-(4-(3-(4-chloro-3-(trifluoromethyl)phenyl)ureido)phenoxy)-N-(2-(2-(3-(((R)-1-((2S,4R)-4-hydroxy-2-(((S)-1-(4-(4-methylthiazol-5-yl)phenyl)ethyl)carbamoyl)pyrrolidin-1-yl)-3,3-dimethyl-1-oxobutan-2-yl)amino)-3-oxopropoxy)ethoxy)ethyl)picolinamide]
Table 17
  RAF/E3 Dimerization: + (5% > RAF/E3 Dimerization)
